Earlier results as cited in patent US20250205209A1, “Methods of Treating a Subject for Myalgic Encephalomyelitis/Chronic Fatigue Syndrome (ME/CFS) and Compositions for Use in The Same” (INCELLDX, INC., priority 2022, published 2025).

What was measured:
[1] = HIV patients; >5 year follow-up of the MOTIVATE trials
R5-tropic HIV-1 = settings: individuals with R5-tropic HIV-1; MOTIVATE 1 and MOTIVATE 2

Cc1nnc(C(C)C)n1[C@@H]1C[C@H]2CC[C@@H](C1)N2CC[C@H](NC(=O)C1CCC(F)(F)CC1)c1ccccc1 [Maraviroc, 4,4-difluoro-N-[(1S)-3-[(1S,5R)-3-(3-methyl-5-propan-2-yl-1,2,4-triazol-4-yl)-8-azabicyclo[3.2.1]octan-8-yl]-1-phenylpropyl]cyclohexane-1-carboxamide]
instances of death and other health threats such as hepatic failure and myocardial infarctions [1]: limited instances of death and other health threats | HIV viral loads (R5-tropic HIV-1): lower levels of HIV viral loads
